Laboratory results from patent US20220144848A1, “SUBSTITUTED OXOPYRIDINE DERIVATIVES” (Bayer Aktiengesellschaft, priority 2018, published 2022).

What was measured:
[1] = target: T1, human plasma kallikrein (Homo sapiens, UniProt P03952); experiment: Determination of the plasma kallikrein activity (fluorogenic peptide substrate H-Pro-Phe-Arg-AMC); format: biochemical; conditions: plasma kallikrein from Kordia, 15 min preincubation, 30 min at 22° C., fluorescence; some as mean values from multiple determinations
T1 construct: purchased Kordia
T1 sequence (P03952 391-638 limits assumed): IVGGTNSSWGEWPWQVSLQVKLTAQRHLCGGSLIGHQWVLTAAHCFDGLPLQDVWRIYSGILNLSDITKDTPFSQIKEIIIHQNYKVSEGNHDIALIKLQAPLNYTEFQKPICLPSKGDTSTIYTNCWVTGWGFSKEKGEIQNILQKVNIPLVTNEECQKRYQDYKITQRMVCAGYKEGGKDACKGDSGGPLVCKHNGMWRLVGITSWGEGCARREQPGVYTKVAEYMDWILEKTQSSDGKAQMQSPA
T1 sequence (P03952 20-390 partner limits assumed): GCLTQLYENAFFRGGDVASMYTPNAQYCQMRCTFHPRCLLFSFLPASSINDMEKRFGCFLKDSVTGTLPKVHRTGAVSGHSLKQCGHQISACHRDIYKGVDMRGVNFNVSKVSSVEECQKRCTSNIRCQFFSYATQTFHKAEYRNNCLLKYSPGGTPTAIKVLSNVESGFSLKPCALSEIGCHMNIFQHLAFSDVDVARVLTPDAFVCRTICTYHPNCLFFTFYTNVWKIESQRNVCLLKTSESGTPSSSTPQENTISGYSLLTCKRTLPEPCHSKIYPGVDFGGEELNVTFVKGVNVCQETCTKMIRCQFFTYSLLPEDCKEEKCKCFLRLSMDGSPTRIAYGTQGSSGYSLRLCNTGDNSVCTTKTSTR
Method: (§1) To determine the plasma kallikrein inhibition of the substances according to the invention, a biochemical test system is used which utilizes the reaction of a peptidic plasma kallikrein substrate to determine the enzymatic activity of human plasma kallikrein. Here, plasma kallikrein cleaves from the peptidic plasma kallikrein substrate the C-terminal aminomethylcoumarin (AMC), the fluorescence of which is measured. The determinations are carried out in microtitre plates.
Test substances are dissolved in dimethyl sulfoxide and serially diluted in dimethyl sulfoxide (3000 μM to 0.0078 μM; resulting final concentrations in the test: 50 μM to 0.00013 μM). In each case 1 μl of the diluted substance solutions is placed into the wells of white microtitre plates from Greiner (384 wells). 20 μl of assay buffer (50 mM Tris/HCl pH 7.4; 100 mM sodium chloride solution; 5 mM of calcium chloride solution; 0.1% of bovine serum albumin) and 20 μl of plasma kallikrein from Kordia (0.6 nM in assay buffer) are then added successively. After 15 min of incubation, the enzyme reaction is started by addition of 20 μl of the substrate H-Pro-Phe-Arg-AMC dissolved in assay buffer (10 μM in assay buffer) from Bachem, the mixture is incubated at room temperature (22° C.) for 30 min and fluorescence is then measured (excitation: 360 nm, emission: 460 nm). The measured emissions of the test batches with test substance are compared to those of control batches without test substance (only dimethyl sulfoxide instead of test substance in dimethyl sulfoxide), and IC50 values are calculated from the concentration/activity relationships. Activity data from this test are listed in Table B below (some as mean values from multiple independent individual determinations): […]

[2] = target: T2, human factor XIa (Homo sapiens, UniProt P03951); experiment: Measurement of FXIa inhibition (fluorogenic peptide substrate Boc-Glu(OBzl)-Ala-Arg-AMC); format: biochemical; conditions: factor XIa from Kordia, 15 min preincubation, 30 min at 22° C., fluorescence; some as mean values from multiple determinations
T2 construct: purchased Kordia
T2 sequence (P03951 388-625 limits assumed): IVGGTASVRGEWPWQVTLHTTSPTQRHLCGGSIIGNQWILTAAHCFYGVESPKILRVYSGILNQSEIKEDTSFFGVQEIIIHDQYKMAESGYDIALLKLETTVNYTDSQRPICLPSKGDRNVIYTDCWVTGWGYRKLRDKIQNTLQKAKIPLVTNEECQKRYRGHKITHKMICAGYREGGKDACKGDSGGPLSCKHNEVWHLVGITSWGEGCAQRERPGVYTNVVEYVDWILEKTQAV
T2 sequence (P03951 19-387 partner limits assumed): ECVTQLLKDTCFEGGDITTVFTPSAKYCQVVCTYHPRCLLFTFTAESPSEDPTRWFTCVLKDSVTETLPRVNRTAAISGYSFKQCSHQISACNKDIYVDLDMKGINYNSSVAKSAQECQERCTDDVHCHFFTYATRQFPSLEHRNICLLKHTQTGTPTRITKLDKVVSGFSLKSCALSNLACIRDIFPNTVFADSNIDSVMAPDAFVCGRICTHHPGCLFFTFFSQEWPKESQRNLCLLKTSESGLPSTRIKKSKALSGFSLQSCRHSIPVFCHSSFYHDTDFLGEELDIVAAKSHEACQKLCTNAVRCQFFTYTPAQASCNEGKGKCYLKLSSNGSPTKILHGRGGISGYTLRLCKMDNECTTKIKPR
Method: as §1, with “The factor XIa” for “To determine the plasma kallikrein”, “invention is determined using” for “invention,”, “system” for “system is used”, “factor XIa” for “plasma kallikrein”, “factor XIa.” for “plasma kallikrein.”
Test substances are dissolved in dimethyl sulfoxide and serially diluted in dimethyl sulfoxide (3000 μM to 0.0078 μM; resulting final concentrations in the test: 50 μM to 0.00013 μM). In each case 1 μl of the diluted substance solutions is placed into the wells of white microtitre plates from Greiner (384 wells). 20 μl of assay buffer (50 mM of Tris/HCl pH 7.4; 100 mM of sodium chloride; 5 mM of calcium chloride; 0.1% of bovine serum albumin) and 20 μl of factor XIa from Kordia (0.45 nM in assay buffer) are then added successively. After 15 min of incubation, the enzyme reaction is started by addition of 20 μl of the factor XIa substrate Boc-Glu(OBzl)-Ala-Arg-AMC dissolved in assay buffer (10 μM in assay buffer) from Bachem, the mixture is incubated at room temperature (22° C.) for 30 min and fluorescence is then measured (excitation: 360 nm, emission: 460 nm). The measured emissions of the test batches with test substance are compared to those of control batches without test substance (only dimethyl sulfoxide instead of test substance in dimethyl sulfoxide), and IC50 values are calculated from the concentration/activity relationships.

CC1Cc2ccc(Cl)cc2-c2cc(=O)n(C(C[C@@H]3CCCCO3)C(=O)Nc3ccc(C(N)=O)nc3)cc2CO1 (mixture of isomers) [Example 3, 5-{2-(11-Chloro-7-methyl-2-oxo-7,8-dihydro-2H-[3]benzoxocino[5,6-c]pyridin-3(5H)-yl)-3-[(2S)-tetrahydro-2H-pyran-2-yl]propanamido}pyridine-2-carboxamide]
IC50 [1]: 510 nM | IC50 [2]: 6 nM

CC1Cc2ccc(Cl)cc2-c2cc(=O)n(C(C[C@@H]3CCCCO3)C(=O)Nc3ccc(C(N)=O)cc3)cc2CO1 (mixture of isomers) [Example 5, 4-({2-(11-Chloro-7-methyl-2-oxo-7,8-dihydro-2H-[3]benzoxocino[5,6-c]pyridin-3(5H)-yl)-3-[(2S)-tetrahydro-2H-pyran-2-yl]propanoyl}amino)benzamide]
IC50 [1]: 400 nM | IC50 [2]: 4.3 nM

CC1Cc2ccc(Cl)cc2-c2cc(=O)n(C(C[C@@H]3COCCO3)C(=O)Nc3ccc(C(N)=O)c(F)c3)cc2CO1 (mixture of isomers) [Example 7, 4-({2-(11-Chloro-7-methyl-2-oxo-7,8-dihydro-2H-[3]benzoxocino[5,6-c]pyridin-3(5H)-yl)-3-[(2R)-1,4-dioxan-2-yl]propanoyl}amino)-2-fluorobenzamide]
IC50 [1]: 780 nM | IC50 [2]: 14 nM

CC1Cc2ccc(Cl)cc2-c2cc(=O)n(C(C[C@@H]3COCCO3)C(=O)Nc3ccc(C(N)=O)cc3)cc2CO1 (mixture of isomers) [Example 9, 4-({2-(11-Chloro-7-methyl-2-oxo-7,8-dihydro-2H-[3]benzoxocino[5,6-c]pyridin-3(5H)-yl)-3-[(2R)-1,4-dioxan-2-yl]propanoyl}amino)benzamide]
IC50 [1]: 260 nM | IC50 [2]: 4.5 nM

CC1Cc2ccc(Cl)cc2-c2cc(=O)n(C(C[C@@H]3COCCO3)C(=O)Nc3ccc4nn(C)nc4c3)cc2CO1 (mixture of isomers) [Example 11, 2-(11-Chloro-7-methyl-2-oxo-7,8-dihydro-2H-[3]benzoxocino[5,6-c]pyridin-3(5H)-yl)-3-[(2R)-1,4-dioxan-2-yl]-N-(2-methyl-2H-benzotriazol-5-yl)propanamide]
IC50 [1]: 190 nM | IC50 [2]: 19 nM

C[C@@H]1Cc2ccc(Cl)cc2-c2cc(=O)n(C(CCOC(F)F)C(=O)Nc3ccc(C(N)=O)cc3)cc2CO1 (mixture of isomers) [Example 16, 4-{2-[(7R)-11-Chlor-7-methyl-2-oxo-7,8-dihydro-2H-[3]benzoxocino[5,6-c]pyridin-3(5H)-yl]-4-(difluoromethoxy)butanamido}benzamide]
IC50 [1]: 110 nM | IC50 [2]: 3.5 nM

C[C@@H]1Cc2ccc(Cl)cc2-c2cc(=O)n(C(C[C@H](C)OC(F)F)C(=O)Nc3ccc(C(N)=O)cc3)cc2CO1 (mixture of isomers) [Example 18, 4-{[(4S)-2-[(7R)-11-Chloro-7-methyl-2-oxo-7,8-dihydro-2H-[3]benzoxocino[5,6-c]pyridin-3(5H)-yl]-4-(difluoromethoxy)pentanoyl]amino}benzamide]
IC50 [1]: 140 nM | IC50 [2]: 3.7 nM

CC1Cc2ccc(Cl)cc2-c2cc(=O)n(C(CCOC(C)(C)C)C(=O)Nc3ccc(C(N)=O)c(F)c3)cc2CO1 (mixture of isomers) [Example 21, 4-{[4-tert-Butoxy-2-(11-chloro-7-methyl-2-oxo-7,8-dihydro-2H-[3]benzoxocino[5,6-c]pyridin-3(5H)-yl)butanoyl]amino}-2-fluorobenzamide]
IC50 [1]: 830 nM | IC50 [2]: 63 nM

CC1Cc2ccc(Cl)cc2-c2cc(=O)n(C(CCOC(C)(C)C)C(=O)Nc3ccc(C(N)=O)cc3)cc2CO1 (mixture of isomers) [Example 23, 4-{[4-tert-Butoxy-2-(11-chloro-7-methyl-2-oxo-7,8-dihydro-2H-[3]benzoxocino[5,6-c]pyridin-3(5H)-yl)butanoyl]amino}benzamide]
IC50 [1]: 410 nM | IC50 [2]: 22 nM

CC[C@@H]1Cc2ccc(Cl)cc2-c2cc(=O)n(C(C[C@@H]3CCCCO3)C(=O)Nc3ccc(C(N)=O)c(F)c3)cc2CO1 (mixture of isomers) [Example 30, 4-{2-[(7R)-11-Chloro-7-ethyl-2-oxo-7,8-dihydro-2H-[3]benzoxocino[5,6-c]pyridin-3(5H)-yl]-3-[(2S)-tetrahydro-2H-pyran-2-yl]propanamido}-2-fluorobenzamide]
IC50 [1]: 1300 nM | IC50 [2]: 25 nM

NC(=O)c1ccc(NC(=O)C(C[C@@H]2CCCCO2)n2cc3c(cc2=O)-c2cc(Cl)ccc2CC(CO)OC3)cc1F (mixture of isomers) [Example 32, 4-{2-[11-Chloro-7-(hydroxymethyl)-2-oxo-7,8-dihydro-2H-[3]benzoxocino[5,6-c]pyridin-3(5H)-yl]-3-[(2S)-tetrahydro-2H-pyran-2-yl]propanamido}-2-fluorobenzamide]
IC50 [1]: 1300 nM | IC50 [2]: 30 nM

NC(=O)c1ccc(NC(=O)C(C[C@@H]2CCCCO2)n2cc3c(cc2=O)-c2cc(Cl)ccc2CC(CO)OC3)cc1 (mixture of isomers) [Example 34, 4-{2-[11-Chloro-7-(hydroxymethyl)-2-oxo-7,8-dihydro-2H-[3]benzoxocino[5,6-c]pyridin-3(5H)-yl]-3-[(2S)-tetrahydro-2H-pyran-2-yl]propanamido}benzamide]
IC50 [1]: 490 nM | IC50 [2]: 6.9 nM

NC(=O)c1ccc(NC(=O)C(C[C@@H]2COCCO2)n2cc3c(cc2=O)-c2cc(Cl)ccc2CC(CO)OC3)cc1 (mixture of isomers) [Example 36, 4-{2-[11-Chloro-7-(hydroxymethyl)-2-oxo-7,8-dihydro-2H-[3]benzoxocino[5,6-c]pyridin-3(5H)-yl]-3-[(2R)-1,4-dioxan-2-yl]propanamido}benzamide]
IC50 [1]: 1000 nM | IC50 [2]: 12 nM

CC(C)C1Cc2ccc(Cl)cc2-c2cc(=O)n(C(C[C@@H]3COCCO3)C(=O)Nc3ccc(C(N)=O)c(F)c3)cc2CO1 (mixture of isomers) [Example 40, 4-({2-(11-Chloro-7-isopropyl-2-oxo-7,8-dihydro-2H-[3]benzoxocino[5,6-c]pyridin-3(5H)-yl)-3-[(2R)-1,4-dioxan-2-yl]propanoyl}amino)-2-fluorobenzamide]
IC50 [1]: 4800 nM | IC50 [2]: 41 nM

CC(C)C1Cc2ccc(Cl)cc2-c2cc(=O)n(C(C[C@@H]3COCCO3)C(=O)Nc3ccc(C(N)=O)cc3)cc2CO1 (mixture of isomers) [Example 42, 4-({2-(11-Chloro-7-isopropyl-2-oxo-7,8-dihydro-2H-[3]benzoxocino[5,6-c]pyridin-3(5H)-yl)-3-[(2R)-1,4-dioxan-2-yl]propanoyl}amino)benzamide]
IC50 [1]: 810 nM | IC50 [2]: 3.6 nM

CC(C)C1Cc2ccc(Cl)cc2-c2cc(=O)n(C(C[C@@H]3COCCO3)C(=O)Nc3ccc4nn(C)nc4c3)cc2CO1 (mixture of isomers) [Example 44, 2-(11-Chloro-7-isopropyl-2-oxo-7,8-dihydro-2H-[3]benzoxocino[5,6-c]pyridin-3(5H)-yl)-3-[(2R)-1,4-dioxan-2-yl]-N-(2-methyl-2H-benzotriazol-5-yl)propanamide]
IC50 [1]: 1600 nM | IC50 [2]: 49 nM

CC[C@@H](C(=O)Nc1ccc(C(N)=O)c(F)c1)n1cc2c(cc1=O)-c1cc(Cl)ccc1CC(C(F)F)OC2 (mixture of isomers) [Example 46, 4-({(2S)-2-[11-Chloro-7-(difluoromethyl)-2-oxo-7,8-dihydro-2H-[3]benzoxocino[5,6-c]pyridin-3(5H)-yl]butanoyl}amino)-2-fluorobenzamide]
IC50 [1]: 2300 nM | IC50 [2]: 110 nM

CC(C)[C@@H]1Cc2ccc(Cl)cc2-c2cc(=O)n([C@@H](C[C@@H]3CCCCO3)C(=O)Nc3ccc(C(N)=O)c(F)c3)cc2CO1 (single isomer, unassigned) [Example 39]
IC50 [1]: 2000 nM
